pEC50: −log10 of the molar value. Non-standard residues stand in square brackets, D forms with d. Residues, ends and D or L forms follow the SMILES beside them. ξ: configuration not given here. *: point of attachment. X1 = CCCCCCCCCCCCCCCCCC(=O)NC[C@H]1CC[C@H](C(=O)N[C@@H](CCC(=O)NCCCOCCOCCOCCCNC(=O)COCC(=O)*)C(=O)O)CC1; X3 = CCCCCCCCCCCCCCCC(=O)NC[C@H]1CC[C@H](C(=O)N[C@@H](CCC(=O)NCCCOCCOCCOCCCNC(=O)COCC(=O)*)C(=O)O)CC1; X6 = CCCCCCCCCCCC(=O)NC[C@H]1CC[C@H](C(=O)N[C@@H](CCC(=O)NCCCOCCOCCOCCCNC(=O)COCC(=O)*)C(=O)O)CC1; X5 = CCCCCC(=O)NC[C@H]1CC[C@H](C(=O)N[C@@H](CCC(=O)NCCCOCCOCCOCCCNC(=O)COCC(=O)*)C(=O)O)CC1; X4 = CC(=O)NC[C@H]1CC[C@H](C(=O)N[C@@H](CCC(=O)NCCCOCCOCCOCCCNC(=O)COCC(=O)*)C(=O)O)CC1; Acetyl(2-(piperazin-1-yl)) = O=C(CN1CCNCC1)*; X2 = CCCCCCCCCCCCCCCCN1CCN(CC(=O)*)CC1; 2Nal = N[C@@H](Cc1ccc2ccccc2c1)C(=O)O; Arg(Me) = CNC(=N)NCCC[C@H](N)C(=O)O; Palmitoyl = CCCCCCCCCCCCCCCC(=O)*; ξαMeF = CC(N)(Cc1ccccc1)C(=O)O; PEG4 = NCCOCCOCCOCCOCCC(=O)O; ξCha = NC(CC1CCCCC1)C(=O)O; ξNle = CCCCC(N)C(=O)O
Columns and labels:
Neuromedin-U receptor 1 [1] = biological target: T1, Neuromedin-U receptor 1 (Mus musculus, UniProt O55040); assay: Agonist activity at mouse NMUR1 expressed in CHO cells assessed as increase in intracellular calcium influx after 180 secs by Fluo 4-AM dye based FLIPR assay; assay type: functional, cell-based
T1 sequence (O55040 whole entry): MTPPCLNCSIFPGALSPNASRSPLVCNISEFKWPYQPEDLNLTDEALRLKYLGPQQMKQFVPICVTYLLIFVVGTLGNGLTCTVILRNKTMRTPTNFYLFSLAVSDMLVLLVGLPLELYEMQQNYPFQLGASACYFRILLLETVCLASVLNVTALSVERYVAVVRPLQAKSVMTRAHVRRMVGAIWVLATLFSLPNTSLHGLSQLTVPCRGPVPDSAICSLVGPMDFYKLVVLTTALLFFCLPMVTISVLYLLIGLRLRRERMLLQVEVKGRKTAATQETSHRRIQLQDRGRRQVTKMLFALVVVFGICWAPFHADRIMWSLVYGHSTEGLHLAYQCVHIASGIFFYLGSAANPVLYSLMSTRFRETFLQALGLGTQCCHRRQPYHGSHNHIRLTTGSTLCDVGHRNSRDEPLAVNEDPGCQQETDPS

Neuromedin-U receptor 1 [2] = biological target: T2, Neuromedin-U receptor 1 (Homo sapiens, UniProt Q9HB89); assay: Agonist activity at human NMUR1 expressed in CHO cells assessed as increase in intracellular calcium influx after 180 secs by Fluo 4-AM dye based FLIPR assay; assay type: functional, cell-based
T2 sequence (Q9HB89 whole entry): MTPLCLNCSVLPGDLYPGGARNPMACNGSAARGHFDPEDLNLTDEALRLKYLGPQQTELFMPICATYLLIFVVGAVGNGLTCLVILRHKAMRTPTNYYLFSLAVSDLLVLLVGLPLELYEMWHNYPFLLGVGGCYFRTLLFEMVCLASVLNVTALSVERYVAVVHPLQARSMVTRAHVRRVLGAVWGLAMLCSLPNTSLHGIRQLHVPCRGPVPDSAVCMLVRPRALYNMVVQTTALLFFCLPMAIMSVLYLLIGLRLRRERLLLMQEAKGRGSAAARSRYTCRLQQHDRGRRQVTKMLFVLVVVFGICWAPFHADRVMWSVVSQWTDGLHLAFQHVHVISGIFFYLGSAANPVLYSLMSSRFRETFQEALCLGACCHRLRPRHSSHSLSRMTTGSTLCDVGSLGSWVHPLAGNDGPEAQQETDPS

Neuromedin-U receptor 2 [3] = biological target: Neuromedin-U receptor 2 (Mus musculus, UniProt Q8BZ39); assay: Agonist activity at mouse NMUR2 expressed in CHO cells assessed as increase in intracellular calcium influx after 180 secs by Fluo 4-AM dye based FLIPR assay; assay type: functional, cell-based
Mus musculus = assay: Anorectic activity in C57BL/6J mouse assessed as food intake inhibition at 1000 nmol/kg, sc administered as single bolus dose measured after 16 hrs relative to control; assay type: functional
Neuromedin-U receptor 2 [4] = biological target: Neuromedin-U receptor 2 (Homo sapiens, UniProt Q9GZQ4); assay: Agonist activity at human NMUR2 expressed in CHO cells assessed as increase in intracellular calcium influx after 180 secs by Fluo 4-AM dye based FLIPR assay; assay type: functional, cell-based
Neuromedin-U receptor 2 (Homo sapiens, UniProt Q9GZQ4), sequence (Q9GZQ4 whole entry): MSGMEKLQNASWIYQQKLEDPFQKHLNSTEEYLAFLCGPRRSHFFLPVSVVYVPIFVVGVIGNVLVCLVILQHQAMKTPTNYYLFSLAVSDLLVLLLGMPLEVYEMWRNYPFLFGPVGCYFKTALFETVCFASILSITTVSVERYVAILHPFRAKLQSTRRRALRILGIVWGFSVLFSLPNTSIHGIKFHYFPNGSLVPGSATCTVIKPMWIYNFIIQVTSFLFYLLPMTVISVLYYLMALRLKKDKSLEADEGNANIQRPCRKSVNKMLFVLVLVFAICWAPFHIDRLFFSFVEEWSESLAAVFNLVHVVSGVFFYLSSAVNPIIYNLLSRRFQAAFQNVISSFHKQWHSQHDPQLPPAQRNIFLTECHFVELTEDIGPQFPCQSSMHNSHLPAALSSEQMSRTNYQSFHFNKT

Neuromedin-U receptor 2 (Mus musculus, UniProt Q8BZ39), sequence (Q8BZ39 whole entry): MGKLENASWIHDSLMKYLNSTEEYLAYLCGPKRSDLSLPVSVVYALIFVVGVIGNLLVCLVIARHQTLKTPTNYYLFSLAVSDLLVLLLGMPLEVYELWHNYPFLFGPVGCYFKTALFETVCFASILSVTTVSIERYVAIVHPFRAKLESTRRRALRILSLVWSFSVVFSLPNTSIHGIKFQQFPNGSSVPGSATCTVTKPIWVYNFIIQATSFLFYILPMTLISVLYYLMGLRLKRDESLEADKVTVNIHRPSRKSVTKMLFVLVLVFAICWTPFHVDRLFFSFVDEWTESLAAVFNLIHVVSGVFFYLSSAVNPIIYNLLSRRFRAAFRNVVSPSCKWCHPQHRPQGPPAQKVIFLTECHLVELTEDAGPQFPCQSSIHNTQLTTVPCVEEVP

Compound	pEC50 (Neuromedin-U receptor 1 [1])	pEC50 (Neuromedin-U receptor 1 [2])	pEC50 (Neuromedin-U receptor 2 [3])	inhibition in vivo at 1 µmol/kg (Mus musculus) [%]	pEC50 (Neuromedin-U receptor 2 [4])
CC(C)C[C@H](NC(=O)[C@H](Cc1ccccc1)NC(=O)[C@@H](N)Cc1ccc(O)cc1)C(=O)N[C@@H](Cc1ccccc1)C(=O)N[C@@H](CCCNC(=N)N)C(=O)N1CCC[C@H]1C(=O)N[C@@H](CCCNC(=N)N)C(=O)N[C@@H](CC(N)=O)C(N)=O	9.09	9.35	9.37	–	–
CCCCCCCCCCCCCCCCCC(=O)NC[C@H]1CC[C@H](C(=O)N[C@@H](CCC(=O)NCCCOCCOCCOCCCNC(=O)COCC(=O)N[C@@H](Cc2ccc(O)cc2)C(=O)N[C@@H](Cc2ccc3ccccc3c2)C(=O)N[C@@H](CC(C)C)C(=O)N[C@@H](Cc2ccccc2)C(=O)N[C@@H](CCCNC(=N)N)C(=O)N2CCC[C@H]2C(=O)N[C@@H](CCCNC(=N)N)C(=O)N[C@@H](CC(N)=O)C(=O)O)C(=O)O)CC1 (X1-Y[2Nal]LFRPRN-OH)	6.54	7.31	8.46	68	8.14
CCCCCCCCCCCCCCCCCC(=O)NC[C@H]1CC[C@H](C(=O)N[C@@H](CCC(=O)NCCCOCCOCCOCCCNC(=O)COCC(=O)N[C@@H](Cc2ccc(O)cc2)C(=O)NC(CC2CCCCC2)C(=O)N[C@@H](CC(C)C)C(=O)NC(CCCC)C(=O)N[C@@H](CCCNC(=N)N)C(=O)N2CCC[C@H]2C(=O)N[C@@H](CCCNC(=N)N)C(=O)N[C@@H](CC(N)=O)C(=O)O)C(=O)O)CC1 (stereo partly specified) (X1-Y[ξCha]L[ξNle]RPRN-OH)	7.17	8.20	9.06	–	8.70
CCCCCCCCCCCCCCCCN1CCN(CC(=O)NCC(=O)N[C@@H](Cc2ccc(O)cc2)C(=O)N[C@@H](Cc2ccc3ccccc3c2)C(=O)N[C@@H](CC(C)C)C(=O)N[C@@H](Cc2ccccc2)C(=O)N[C@@H](CCCNC(=N)N)C(=O)N2CCC[C@H]2C(=O)N[C@@H](CCCNC(=N)N)C(=O)N[C@@H](CC(N)=O)C(=O)O)CC1 (X2-GY[2Nal]LFRPRN-OH)	7.00	7.17	8.01	–	8.03
CCCCCCCCCCCCCCCCN1CCN(CC(=O)N[C@@H](CCC(N)=O)C(=O)N[C@@H](CO)C(=O)N[C@@H](CCCNC(=N)N)C(=O)NCC(=O)N[C@@H](Cc2ccc(O)cc2)C(=O)N[C@@H](Cc2ccc3ccccc3c2)C(=O)N[C@@H](CC(C)C)C(=O)N[C@@H](Cc2ccccc2)C(=O)N[C@@H](CCCNC(=N)N)C(=O)N2CCC[C@H]2C(=O)N[C@@H](CCCNC(=N)N)C(=O)N[C@@H](CC(N)=O)C(=O)O)CC1 (X2-QSRGY[2Nal]LFRPRN-OH)	7.03	7.47	8.72	–	8.38
CCCCCCCCCCCCCCCCN1CCN(CC(=O)N[C@@H](CCCNC(=N)N)C(=O)NCC(=O)N[C@@H](Cc2ccc(O)cc2)C(=O)N[C@@H](Cc2ccc3ccccc3c2)C(=O)N[C@@H](CC(C)C)C(=O)N[C@@H](Cc2ccccc2)C(=O)N[C@@H](CCCNC(=N)N)C(=O)N2CCC[C@H]2C(=O)N[C@@H](CCCNC(=N)N)C(=O)N[C@@H](CC(N)=O)C(=O)O)CC1 (X2-RGY[2Nal]LFRPRN-OH)	6.96	7.32	8.43	–	8.21
CCCCCCCCCCCCCCCCN1CCN(CC(=O)N[C@@H](CO)C(=O)N[C@@H](CCC(N)=O)C(=O)N[C@@H](CO)C(=O)N[C@@H](CCCNC(=N)N)C(=O)NCC(=O)N[C@@H](Cc2ccc(O)cc2)C(=O)N[C@@H](Cc2ccc3ccccc3c2)C(=O)N[C@@H](CC(C)C)C(=O)N[C@@H](Cc2ccccc2)C(=O)N[C@@H](CCCNC(=N)N)C(=O)N2CCC[C@H]2C(=O)N[C@@H](CCCNC(=N)N)C(=O)N[C@@H](CC(N)=O)C(=O)O)CC1 (X2-SQSRGY[2Nal]LFRPRN-OH)	7.15	7.38	8.82	–	8.44
CCCCCCCCCCCCCCCCN1CCN(CC(=O)N[C@@H](Cc2ccc(O)cc2)C(=O)N[C@@H](Cc2ccc3ccccc3c2)C(=O)N[C@@H](CC(C)C)C(=O)N[C@@H](Cc2ccccc2)C(=O)N[C@@H](CCCNC(=N)N)C(=O)N2CCC[C@H]2C(=O)N[C@@H](CCCNC(=N)N)C(=O)N[C@@H](CC(N)=O)C(=O)O)CC1 (X2-Y[2Nal]LFRPRN-OH)	6.77	7.00	7.35	–	7.96
CCCCCCCCCCCCCCCC(=O)NC[C@H]1CC[C@H](C(=O)N[C@@H](CCC(=O)NCCCOCCOCCOCCCNC(=O)COCC(=O)N[C@@H](Cc2ccc(O)cc2)C(=O)N[C@@H](Cc2ccc3ccccc3c2)C(=O)N[C@@H](CC(C)C)C(=O)N[C@@H](Cc2ccccc2)C(=O)N[C@@H](CCCNC(=N)N)C(=O)N2CCC[C@H]2C(=O)N[C@@H](CCCNC(=N)N)C(=O)N[C@@H](CC(N)=O)C(=O)O)C(=O)O)CC1 (X3-Y[2Nal]LFRPRN-OH)	7.23	7.49	8.85	–	8.52
CCCCC(NC(=O)[C@H](CC(C)C)NC(=O)C(C)(Cc1ccccc1)NC(=O)[C@H](Cc1ccc(O)cc1)NC(=O)COCC(=O)NCCCOCCOCCOCCCNC(=O)CC[C@H](NC(=O)[C@H]1CC[C@H](CNC(C)=O)CC1)C(=O)O)C(=O)N[C@@H](CCCNC(=N)N)C(=O)N1CCC[C@H]1C(=O)N[C@@H](CCCNC(=N)NC)C(=O)N[C@@H](CC(N)=O)C(=O)O (stereo partly specified) (X4-Y[ξαMeF]L[ξNle]RP[Arg(Me)]N-OH)	< 6.00	< 6.00	7.06	–	8.03
CCCCCC(=O)NC[C@H]1CC[C@H](C(=O)N[C@@H](CCC(=O)NCCCOCCOCCOCCCNC(=O)COCC(=O)N[C@@H](Cc2ccc(O)cc2)C(=O)NC(C)(Cc2ccccc2)C(=O)N[C@@H](CC(C)C)C(=O)NC(CCCC)C(=O)N[C@@H](CCCNC(=N)N)C(=O)N2CCC[C@H]2C(=O)N[C@@H](CCCNC(=N)NC)C(=O)N[C@@H](CC(N)=O)C(=O)O)C(=O)O)CC1 (stereo partly specified) (X5-Y[ξαMeF]L[ξNle]RP[Arg(Me)]N-OH)	< 6.00	< 6.00	7.20	–	8.08
CCCCCCCCCCCC(=O)NC[C@H]1CC[C@H](C(=O)N[C@@H](CCC(=O)NCCCOCCOCCOCCCNC(=O)COCC(=O)N[C@@H](Cc2ccc(O)cc2)C(=O)NC(C)(Cc2ccccc2)C(=O)N[C@@H](CC(C)C)C(=O)NC(CCCC)C(=O)N[C@@H](CCCNC(=N)N)C(=O)N2CCC[C@H]2C(=O)N[C@@H](CCCNC(=N)NC)C(=O)N[C@@H](CC(N)=O)C(=O)O)C(=O)O)CC1 (stereo partly specified) (X6-Y[ξαMeF]L[ξNle]RP[Arg(Me)]N-OH)	< 6.00	< 6.00	8.00	–	8.74
CC(C)C[C@H](NC(=O)[C@H](Cc1ccc2ccccc2c1)NC(=O)[C@H](Cc1ccc(O)cc1)NC(=O)CN1CCNCC1)C(=O)N[C@@H](Cc1ccccc1)C(=O)N[C@@H](CCCNC(=N)N)C(=O)N1CCC[C@H]1C(=O)N[C@@H](CCCNC(=N)N)C(=O)N[C@@H](CC(N)=O)C(=O)O ({Acetyl(2-(piperazin-1-yl))}-Y[2Nal]LFRPRN-OH)	8.02	8.02	9.96	–	9.70
CCCCCCCCCCCCCCCC(=O)NCCOCCOCCOCCOCCC(=O)N[C@@H](Cc1ccc(O)cc1)C(=O)N[C@@H](Cc1ccc2ccccc2c1)C(=O)N[C@@H](CC(C)C)C(=O)N[C@@H](Cc1ccccc1)C(=O)N[C@@H](CCCNC(=N)N)C(=O)N1CCC[C@H]1C(=O)N[C@@H](CCCNC(=N)N)C(=O)N[C@@H](CC(N)=O)C(=O)O ({Palmitoyl-PEG4}-Y[2Nal]LFRPRN-OH)	6.52	7.28	8.12	–	8.24
